Measured values published in patent US20250290915A1, “METHOD FOR PREDICTING RESPONSIVENESS TO THERAPY” (CANCERTAIN LIMITED, priority 2022, published 2025).

Columns and labels:
[1] = test system: Circulating Tumour Cells (CTCs) from a patient with renal cancer; assay: Drug response score assay on CTCs (with CD45+ cells for immunotherapy) from blood, Example 7; format: cell-based, human; parameters: key to Drug response score, conc. 1 / Drug response score, conc. 2 / Drug response score, conc. 3 / Drug response score, conc. 4: normalized drug response metric per Gupta et al. 2020; conditions: for Drug response score, conc. 1: conc. 1: Pembr 20 μg/ml (CTCs + CD45+ cells), Docetax 0.02 μg/ml, Gemcit 2 μg/ml, Topo 5 μg/ml, Etop 1 μg/ml, Eribul 5 μg/ml (CTCs); for Drug response score, conc. 1 / Drug response score, conc. 2 / Drug response score, conc. 3 / Drug response score, conc. 4: t96h; for Drug response score, conc. 2: conc. 2: Pembr 40 μg/ml (CTCs + CD45+ cells), Docetax 0.2 μg/ml, Gemcit 10 μg/ml, Topo 10 μg/ml, Etop 4 μg/ml, Eribul 10 μg/ml (CTCs); for Drug response score, conc. 3: conc. 3: Pembr 100 μg/ml (CTCs + CD45+ cells), Docetax 2 μg/ml, Gemcit 20 μg/ml, Topo 50 μg/ml, Etop 20 μg/ml, Eribul 20 μg/ml (CTCs); for Drug response score, conc. 4: conc. 4: Pembr 160 μg/ml (CTCs + CD45+ cells), Docetax 10 μg/ml, Gemcit 40 μg/ml, Topo 100 μg/ml, Etop 100 μg/ml, Eribul 40 μg/ml (CTCs); for Drug sensitivity as calculated by the assay (interpretation of Drug Response Scores) / effectiveness on Circulating Tumour Cells under laboratory conditions: renal cancer CTCs; for Drug sensitivity as calculated by the assay (interpretation of Drug Response Scores): Table 23
Experimental: CD45^+ cells and circulating tumour cells (CTCs) were isolated from a blood sample provided by each subject.
CD45 separation was performed by adding human CD45 microbeads (50 μl/ml blood), incubating for 15 minutes at 4° C. and then processing using an AutoMACS machine. This separates the blood sample into CD45^+ and CD45^−cells in 2 separate falcons. The falcon tubes are then centrifuged at 1200 rpm for 5 minutes.
The supernatant was removed from the CD45^+falcon tube, and the cells resuspended in DMEM with 2 μl Cell Tox, 2 μl MT and 2 μl MT. 20 μl of the resuspended CD45^+ cells was then plated in each well which will contain an immunotherapy treatment.
The supernatant was removed from the CD45^−falcon tube, and the CD45^−cells contacted with 100 μl of FcR block and 100 μl of CD326 (EpCAM) MicroBeads, followed by incubation at […] 4° C. for 30 minutes. The CD45^−cells were then processed using an AutoMACS machine to separate the EpCAM positive and negative cells into 2 separate falcon tubes. The EpCAM-cells were discarded. The supernatant was removed from the EpCAM^+ cells, and the cells resuspended in DMEM with 2 μl Cell Tox, 2 μl MT and 2 μl MT. 20 μl of the resuspended pellet was then added to all sample wells excluding a blank. After all wells are added to, a cell count was conducted on the […] to determine the number of circulating tumour cells (CTCs).
(§1) The different cell types were each divided equally into populations, depending on the number of drugs/concentrations to be tested and plated on a cell-culture plate pre-coated with a scaffold of polycaprolactone (PCL) electrospun fibres and incubated at 37° C., 5% CO2, for 5 to (typically 10) minutes to facilitate cell attachment. After attachment, an initial imaging step was carried out using the RealTime-Glo™ MT assay from Promega (Catalogue No. G9711)) and the CellTox™ Green Cytotoxicity Assay (Promega, Catalogue No. G8741), carried out according to manufacturer's instructions. Following this initial imagining, the immunotherapeutic and/or chemotherapeutic agents were added to the cell populations as indicated below. After 10 minutes, the imagining step was repeated. The cell populations were then incubated at 37° C., 5% CO2 for 48 hours. The imaging step was then repeated. The cell populations were then re-dosed with the same immunotherapeutic and/or chemotherapeutic agents as indicated below, and incubated at 37° C., 5% CO2 for a further 48 hours. After this second 48 hour incubation, the imagining step was repeated for a final time.
(§2) At the end of this culture period, dose response scores were calculated using a normalized drug response metric as described in Gupta et al. (Communications Biology volume 3, Article number: 42 (2020), https://doi.org/10.1038/s42003-020-0765-z). The start readout for a given immunotherapeutic or chemotherapeutic agent at a given concentration was the to readout for said immunotherapeutic or chemotherapeutic agent at a specified concentration. The end readout for a given immunotherapeutic or chemotherapeutic agent at a given concentration was the final timepoint reading (t96h) for said immunotherapeutic or chemotherapeutic agent at a specified concentration.
The positive control start readout for a given drug/concentration was the to readout for the corresponding drug at a specified concentration. The positive control end readout for the corresponding drug at a specified concentration was the final timepoint reading (t96h) for the corresponding blank well.
The negative control start and end readouts for a given immunotherapeutic or chemotherapeutic agent at a given concentration were the to and final timepoint reading (t96h) respectively for blank cell or blank immuno cell well respectively.
The sensitivity or resistance of a subject's cancer to a given immunotherapeutic or chemotherapeutic agent was determined based on the calculated drug response score as shown in Table 2. […]

[2] = test system: Cancer Cells from tissue sample (CSCs, tumour marker+ cells) of a patient with GI cancer (Cholangio Carcinoma, stage 4); assay: Drug response score assay on tissue sample, Example 9; format: cell-based, human; conditions: for effectiveness on Cancer Cells from tissue sample under laboratory conditions: GI cancer (Cholangio Carcinoma) tissue sample; for Drug sensitivity as calculated by the assay, Tissue: interpretation based on Drug Response Scores; for Drug sensitivity as calculated by the assay, Tissue / Drug response score, conc. 1 / Drug response score, conc. 2 / Drug response score, conc. 3 / Drug response score, conc. 4: tissue sample; for Drug response score, conc. 1: conc. 1 per Table 27B: Pem 20, Niv 20, Atez 100, Pacli 0.05, Irino 5, Beva 1 μg/ml, Len 50, 5-FU 250 ng/ml; for Drug response score, conc. 2: conc. 2 per Table 27B: Pem 40, Niv 40, Atez 200, Pacli 0.1, Irino 10, Beva 2 μg/ml, Len 100, 5-FU 500 ng/ml; for Drug response score, conc. 3: conc. 3 per Table 27B: Pem 100, Niv 80, Atez 400, Pacli 0.2, Irino 25, Beva 4 μg/ml, Len 200, 5-FU 1000 ng/ml; for Drug response score, conc. 4: conc. 4 per Table 27B: Pem 160, Niv 160, Atez 800, Pacli 1, Irino 50, Beva 8 μg/ml, Len 400, 5-FU 2000 ng/ml
Experimental: Where a tissue sample was provided by each subject, cancer stem cells (CSCs, CD133^+), were isolated from said sample. Tumour marker cells were further isolated from each tissue sample. The remaining cells were designated tumour marker^+ cells.
First, disaggregation of the tissue samples was carried out. Disaggregation was dependent on the size of the tissue sample and the method of retrieval: • EBUS (Endobronchial Ultrasound Scan and Biopsy)—very small fragments of tissue in solution-spun at 1200 rpm for 5 minutes to collect tissue pellet • Bronchoscopy-larger fragments with larger amount of blood vessels • Broncho-lavage-similar to EBUS, spun at 1200 rpm for 5 minutes to collet tissue pellet
Once a pellet of tissue obtained, DMEM added to the tissue pellet and the material forced through a […] Smart strainer. Once a cell suspension was achieved, this was spun at 1200 rpm for 5 minutes and the supernatant removed. The cells were then resuspended to a volume of 60 μl.
20 μl of FcR block and 20 μl of CD133 microbeads were added to the resuspended cells, followed by incubation for 15 minutes at 4° C. The cells were then processed using an AutoMACS machine. This separates the […] into CD133^+ and CD133^− cells in 2 separate falcons. The falcon tubes are then centrifuged at 1200 rpm for 5 minutes.
The supernatant was removed from the CD133+falcon tube, and the cells resuspended in DMEM with 2 μl Cell Tox, 2 μl MT and 2 μl MT. 20 μl of the resuspended […] was then plated in each well which will contain an immunotherapy treatment.
The supernatant was removed from the CD133^− falcon tube, and the CD133^− cells contacted with 40 μl of a tumour separation microbeads cocktail containing microbeads bound to anti-CD31, anti-CD45, anti-Glycophorin-A (Gly-A) and an anti-fibroblast antibody.
This cocktail is used to separate out tumour marker cells using MACS, by separating out CD31^+, CD45^+ and Gly-A^+ cells. In addition, anti-fibroblast antibody-labelled beads are also used. The cocktail is added to the CD133^− falcon tube, followed by incubation for 15 minutes at 4° C. MACS is carried out using an AutoMACS machine. This cells which are not bound by the CD31, CD45, Gly-A and anti-fibroblast antibody beads are the tumour marker^+ cells.
as §1
as §2, with “The end readout for a given immunotherapeutic or chemotherapeutic agent at a given concentration was the final timepoint reading (t96h) for said immunotherapeutic or chemotherapeutic agent at a specified concentration.” left out

| Molecule | Drug response score, conc. 1 [1] | Drug response score, conc. 2 [1] | Drug response score, conc. 3 [1] | Drug response score, conc. 4 [1] | Drug sensitivity as calculated by the assay (interpretation of Drug Response Scores) [1] | effectiveness on Circulating Tumour Cells under laboratory conditions [1] | effectiveness on Cancer Cells from tissue sample under laboratory conditions [2] | Drug sensitivity as calculated by the assay, Tissue [2] | Drug response score, conc. 1 [2] | Drug response score, conc. 2 [2] | Drug response score, conc. 3 [2] | Drug response score, conc. 4 [2] |
| --- | --- | --- | --- | --- | --- | --- | --- | --- | --- | --- | --- | --- |
| CC(=O)O[C@@]12CO[C@@H]1C[C@H](O)[C@@]1(C)C(=O)[C@H](O)C3=C(C)[C@@H](OC(=O)[C@H](O)[C@@H](NC(=O)OC(C)(C)C)c4ccccc4)C[C@@](O)([C@@H](OC(=O)c4ccccc4)[C@H]21)C3(C)C [Docetaxel] | 0.0585 | −0.1811 | 0.0514 | −0.1468 | Sensitive (S+) |  |  |  |  |  |  |  |
| COc1cc([C@@H]2c3cc4c(cc3[C@@H](O[C@@H]3O[C@@H]5CO[C@@H](C)O[C@H]5[C@H](O)[C@H]3O)[C@H]3COC(=O)[C@H]23)OCO4)cc(OC)c1O [Etoposide] | −0.2179 | −0.1141 | −0.1357 | −0.0050 | Sensitive (S++) | Sensitive S++ |  |  |  |  |  |  |
| COc1cc2nccc(Oc3ccc(NC(=O)NC4CC4)c(Cl)c3)c2cc1C(N)=O [Lenvatinib] |  |  |  |  |  |  | S+ | S+ | 0.9082 | 0.9132 | 0.8739 | 0.9434 |
| CC(=O)O[C@H]1C(=O)[C@@]2(C)[C@H]([C@H](OC(=O)c3ccccc3)[C@]3(O)C[C@H](OC(=O)[C@H](O)[C@@H](NC(=O)c4ccccc4)c4ccccc4)C(C)=C1C3(C)C)[C@]1(OC(C)=O)CO[C@@H]1C[C@@H]2O [Paclitaxel] |  |  |  |  |  |  |  |  | 0.9365 | 0.9526 | 0.9072 | 0.9683 |
| Nivolumab |  |  |  |  |  |  | S+ | S+ | 0.9424 | 0.9636 | 0.9018 | 0.6833 |
| Pembrolizumab | −0.0194 | 0.1577 | 0.0468 | −0.0364 | Sensitive (S+) | Sensitive S+ | S+ | S+ | 0.9764 | 0.9717 | 0.9672 | 0.8354 |
